The series can be described thus: aqueous solubility. It counts as physicochemical. The note with it: water at pH 6.8.

In brackets after ≈: the same amount, converted by molar mass.

These results are taken from patent US20010014742A1, “Water-soluble prodrugs of azole compounds” (priority 1999, published 2001).

Regarding `C[C@@H](c1nc(-c2ccc(C#N)cc2)cs1)C(O)(Cn1cncn1)c1ccc(F)cc1F` (stereo partly drawn) [the above triazole compound, (2R,3R)-3-[4-(4-cyanophenyl)thiazol-2-yl]-2-(2,4-difluorophenyl)-1-(1H,1,2,4-triazol-1-yl)-butan-2-ol], the solubility worked out at 0.6 µg/mL (≈ 1.37 µM).
